Source: patent publication EP0103895A2, “Novel hydroxylamine derivatives, production and use thereof” (MEIJI SEIKA KABUSHIKI KAISHA, priority 1982, dated 1984)
“And” between values parts separate entries of the source, which are not always exact repeats. Equal entries are not always repeated. Where two headings read alike, the source gives them in different places.

Key:
[1] = test system: fowl roundworm (Ascaridia galli); assay: Anthelmintic test in chickens artificially infected with fowl roundworm, single oral dose in gelatin capsule, worm bodies counted within 48 hours (Test Examples A1, B1, C1, D1); assay type: in vivo; settings: Ascaridia galli, po, 48 h, chicken, chickens No.1-3, read-out: Anthelmintic effect after 48 hours; for inhibition in vivo at 15 mg/kg: 15 mg/Kg oral in gelatin capsule; for inhibition in vivo at 30 mg/kg: 30 mg/Kg oral in gelatin capsule
In short: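 Anthelmintic percentage derived from counts of worms passed within 48 h plus worms left in the intestine after killing at 48 h. Infection confirmed by fecal examination in three-bird groups; compound given orally once in gelatin capsules at 10/20 (A1, B1), 30/50 (C1) or 15/30 (D1) mg/kg.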

[2] = test system: fowl roundworm (As. galli); assay: Anthelmintic test in chickens artificially infected with fowl roundworm, compound added to feed, E.P.G. and worm count up to 21st day (Test Examples A2, B2, C2, D2); assay type: in vivo, Ascaridia galli; settings: chicken; for inhibition in vivo at 25 ppm / inhibition in vivo at 50 ppm: Ascaridia galli, feed or water, 504 h, read-out: Anthelmintic effect
[3] = test system: canine strongyloides (Strongyloides stercoralis); assay: Anthelmintic test against canine strongyloides in naturally infected dogs, E.P.G. on 7th day (Test Examples A4, B4, C4, D4); assay type: in vivo
Method: Three dogs infected with canine strongyloides (naturally infected dogs) were employed by grouping them into a group of two and a group of one.
As control, only a gelatin capsule was administered orally to the one dog.
(§1) Before administration and on the 7th day after administration, fecal matter testing was conducted to calculate the E.P.G., and the anthelmintic effect was judged by the changing of the E.P.G. to negative.
(§2) As control, only gelatin capsules were administered orally to the one dog.
as §2

[4] = test system: canine filaria; Dirofilaria immitis; assay: Test of anthelmintic effect against canine filaria in naturally infected dogs, subcutaneous injection, microfilaria in blood and adult filaria at autopsy (Test Examples A10, B10, C10, D10); assay type: in vivo; settings: for inhibition in vivo at 20 mg/kg / inhibition in vivo at 30 mg/kg: Dirofilaria immitis, sc, 240 h
Method: Eight dogs infected with canine filaria; Diro- filaria immitis (naturally infected dogs) were employed in groups each of two dogs.
The compounds provided for tests were Compound Nos. Al, A3 and A12. 20 mg of each was administered by subcutaneous injection per Kg of body weight to each of the two dogs as a suspension in 1% "Tween 80" solution once per day for three days. As control, 3 ml of the 1% "Tween 80" solution was subcutaneously injected into two dogs once per day for three days.
Before administration and on the 10th day after administration, 20 µl of earlobe blood of each dog was sampled and examined to determine the change in microfilaria (mf) according to the concentrated smear color method, and judgement on the effect on microfilaria (mf) was made. Judgement relating to adult filaria was made on the 10th day after the last administration by killing the dogs and carrying out autopsis.
30 mg of each compound was administered by subcutaneous injection per Kg of body weight to each of the two dogs as a suspension in 1% "Tween 80" solution once per day for three days. As control, 3 ml of the 1% "Tween 80" solution was subcutaneously injected into two dogs once per day for three days.
30 mg of each compound was administered by subcutaneous injection per Kg of body weight to each of two dogs as a suspension in 1% "Tween 80" solution once per day for three days. As control, 3 ml of the 1% "Tween 80" solution was subcutaneously injected to two dogs once per day for three days.
20 mg of each compound was administered by subcutaneous injection per kg of body weight once per day for three days to each of two dogs. These compounds were administered as a suspension in 1% "Tween 80" in the case of Compound No.Dl3 and as solutions dissolved in distilled water for injection in the case of Compounds Nos. D10 and D16, respectively. As control, 3 ml of the 1% "Tween 80" solution was subcutaneously injected into two dogs once per day for three days.

[5] = test system: Liver fluke; Fasciola hepatica (F. hepatica); assay: Test of anthelmintic effect against rat infected experimentally with liver fluke (Test Examples A11, B11, C11, D11); assay type: in vivo; settings: for anthelmintic effect: rats, five administrations in a dose of 50 mg/Kg each
From the text: Twenty-eight (28) rats were employed in fourteen groups each of two rats, each rat being infected with 5 metacercariae of Liver fluke; Fasciola he^patica (F.. hepatica) and confirmed to have worm eggs on the 75th day after infection according to fecal matter testing.
Judgement of the effect was made by the presence or absence of the worm gees in the fecal matter on the 21st day after the last administration and by examination according to autopsis as to whether the worm bodies were dead or alive in the liver.
The same as that in Test Example All, but eight (8) rats were employed by grouping them into groups each of two rats, each rat being infected with 5 metacercariae of liver fluke and confirmed to have fluke eggs on the 75th day after infection according to fecal matter testing.
The compounds provided for the tests were Compound Nos. Bl, B8 and B19.
The same as that in Test Example All, but six (6) rats were employed by grouping them into groups each of two rats, each rat being infected with 5 metacercariae of Fasciola hepatica and confirmed to have worm eggs on the 75th day after infection according to fecal matter testing.
The compounds provided for the tests were Compound Nos. C2 and C6.
The same as that in Test Example All, but the compounds provided for tests were Compound Nos. D14, D15 and D16.

[6] = test system: Diphyllobothrium erinacei; assay: Test of anthelmintic effect against Diphyllobothrium erinacei (tapeworm) in experimentally infected cats (Test Examples A5, B5, C5, D5); settings: for Number of worms remaining in enteron: 50 mg/Kg x 5; for anthelmintic effect: cats, 5 continuous administrations of 50 mg/Kg
[7] = test system: swine Oesophagostomum (Oesophagostomum dentatum); assay: Test of anthelmintic effect against swine Oesophagostomum in naturally infected pigs, E.P.G. on 7th day (Test Examples A8, B8, C8, D8); assay type: in vivo; settings: for Change of E.P.G. 7th day / Change of E.P.G. Before administration: pig, Oesophagostomum dentatum; for Change of E.P.G. 7th day: 20 mg/Kg, one administration; for Change of E.P.G. Before administration: before 20 mg/Kg (baseline); for anthelmintic effect: pigs, one administration of 20 mg/Kg
Method: Six pigs infected with swine Oesophagostomum (naturally infected pigs) were employed by grouping them into groups each of two pigs.
As a control, only gelatin capsules were administered orally to the two pigs.
as §1

SMILES | inhibition in vivo at 15 mg/kg [1] [%] | inhibition in vivo at 30 mg/kg [1] [%] | inhibition in vivo at 25 ppm ([2]; 25 ppm in feed) [%] | inhibition in vivo at 50 ppm ([2]; 50 ppm in feed) [%] | Presence or absence of fluke egg in fecal matter On 21st day after the last administration ([5]; rat, 50 mg/Kg x 5) | anthelmintic effect [5] | Number of worms remaining in enteron ([6]; cat) | anthelmintic effect [6] | Change of E.P.G. 7th day [7] | Change of E.P.G. Before administration [7] | anthelmintic effect [7] | other results
C#CCNOC.Cl [Compound D16, N-propargyl-O-methylhydroxylamine hydrochloride] | 100 | 100 | 100 | 100 | - | marked anthelmintic effect | 0 | marked anthelmintic effects |  |  |  | Change of E.P.G. 7th day ([3]; dog, Strongyloides stercoralis, 10 mg/Kg, one administration): 0; Change of E.P.G. Before administration ([3]; dog, Strongyloides stercoralis, before 10 mg/Kg (baseline), hydrochloride): 2,300 and 1,800; anthelmintic effect ([3]; dogs, one administration of 10 mg/Kg): marked anthelmintic effect; inhibition in vivo at 20 mg/kg ([4]; dog, 20 mg/Kg x 3, subcutaneous injection, read-out: Effect on adult filaria: Percent of worms killed): 55%; inhibition in vivo at 20 mg/kg ([4]; dogs, administration of 20 mg/Kg repeated three times, given as about 50% or more, read-out: anthelmintic effect against adult filaria): ≥ 50%; Number of microfilaria/20µl On 10th day after the administration ([4]; dog, 20 mg/Kg x 3, subcutaneous injection): 0 /20µl; Effect on adult filaria: Number of worms killed/ Total parasite ([4]; dog, 20 mg/Kg x 3, subcutaneous injection, hydrochloride, 20 mg/kg): 16/29 and 23/37; Number of microfilaria/20µl Before administration ([4]; dog, before 20 mg/Kg x 3 subcutaneous injection (baseline), hydrochloride): 18 /20µl and 31 /20µl; anthelmintic effect against microfilaria (mf) ([4]; dogs, administration of 20 mg/Kg repeated three times): marked anthelmintic effect; Condition of fluke bodies ([5]; rat, 50 mg/Kg x 5): dead
C=CCNOCC(C)C [Compound D3] |  | 100 | 80 to 90 | 100 |  |  |  |  | 0 | 2,200 and 1,800 | marked anthelmintic effect | 
C=CCNOC [Compound D9] | 50 to 79 | 100 |  |  |  |  | 0 | marked anthelmintic effects |  |  |  | 
C=CCON(CC=C)C(=O)CC [Compound C2] |  | 100 | 100 | 100 | - | marked antihelmintic effect |  | marked anthelmintic effects | 0 | 1,700 and 1,200 | marked anthelmintic effect | inhibition in vivo at 50 mg/kg ([1]; 50 mg/Kg oral in gelatin capsule): 100%; Change of E.P.G. 21st day ([2]; 25 ppm in feed): 0; Change of E.P.G. 21st day ([2]; 50 ppm in feed): 0; inhibition in vivo at 30 mg/kg ([4]; dog, 30 mg/Kg x 3, subcutaneous injection, read-out: Effect on adult filaria: Percent of worms killed): 62%; inhibition in vivo at 30 mg/kg ([4]; dogs, administration of 30 mg/Kg repeated three times, given as about 50% or more, read-out: anthelmintic effect against adult filaria): ≥ 50%; Number of microfilaria/20 µl On 10th day after the last administration ([4]; dog, 30 mg/Kg x 3, subcutaneous injection, suspension in 1% Tween 80): 0 /20 µl; Effect on adult filaria: Number of worms killed/ Total parasite ([4]; dog, 30 mg/Kg x 3, subcutaneous injection, 30 mg/kg): 5/8 and 8/13; anthelmintic effect against microfilaria (mf) ([4]; dogs, administration of 30 mg/Kg repeated three times): marked anthelmintic effect; Condition of fluke body ([5]; rat, 50 mg/Kg x 5): dead; Number of worm bodies remaining in enteron ([6]; cat, 50 mg/Kg x 5, oral in gelatin capsule): 0; Worm egg detection on 10th day after administration ([6]; cat, 50 mg/Kg x 5, oral in gelatin capsule, once per day for 5 days): -
